{"source": "patent US20150307841A1", "about": "“Composition for Promoting Differentiation and Proliferation of Neural Stem Cell and Neural Precursor Cell” (priority 2014, published 2015)", "system": "GAD67-, VGluT1-, ChAT-positive neurons and OX42 reactive microglia in the hippocampus", "assay": "Immunohistochemical analysis of GAD67, VGluT1, ChAT, OX42 in hippocampus (Experimental Example 1)", "assay_type": "in vivo, rat", "experimental": "Immunostaining was carried out using antibodies against VGluT1 (diluted 1:500, Chemicon), ChAT (1:500, Chemicon), GFAP (1:1,000, Chemicon), tyrosine hydroxylase (TH, 1:500, Chemicon) and OX42 (CD11b/c, 1:250, Serotec) as primary antibodies instead of the anti-BrdU antibodies used in (4). The other process was the same as in (4), except that incubation was performed at 37° C. for 30 minutes in 2 N HCl.\nIn the immunohistochemical analysis, the number of the cells immnunostained against each antibody was counted from 5 or 6 hippocampal coronal sections. For each staining analysis, every fifth cryosections of the hippocampal region of brain tissues (AP: bregma −4.5 to −4.3 mm) were taken for immunostaining. The number of the immnunostained cells was represented as an average of number of cells in the hippocampal region of one brain slice.\nThe number of the VGluT1- and GAD-positive cells in the brain slice samples 1 week and 4 weeks after the administration of soyasaponin I was presented per microscopic field (×400-VGluT1, ×800-GAD67) and the number of the ChAT-positive cells was presented per each hippocampal region (10-12 confocal laser microscopic fields). 5-11 animals were used per group. Western blotted membranes were analyzed using the multi-gauge, bio-imaging program on LAS-4000 Mini (Fujifilm Life Science, Stamford, Conn., USA). Densitometeric analysis of the expression ratios of VGluT1/β-actin, GAD65/67/β-actin and ChAT/β-actin was normalized to the vehicle group.", "key": {"[1]": {"conditions": "ibotenic acid injected into entorhinal cortex, no soyasaponin I"}, "[2]": {"conditions": "memory-deficient model rats, soyasaponin I at 5, 10, 20 mg/kg oral"}}, "data": [{"smiles": "N[C@H](C(=O)O)c1cc(=O)[nH]o1", "note": "[IBO, Ibotenic acid]", "values": [{"measurement": "ChAT-positive cells in the hippocampus relative to Sham", "setting": "[1]", "result": "52.07 ± 7.38", "unit": "%"}, {"measurement": "GAD67-positive cells in the hippocampus relative to Sham", "setting": "[1]", "result": "43.02 ± 3.72", "unit": "%"}, {"measurement": "VGluT1-positive cells in the hippocampus relative to Sham", "setting": "[1]", "result": "72.44 ± 3.86", "unit": "%"}, {"measurement": "Number of ChAT-positive cells in the hippocampus", "setting": "[2]", "result": "7.30±1.32", "unit": "cells"}, {"measurement": "Number of GAD67-positive cells", "setting": "[2]", "result": "3.81±0.63 cells per hippocampal slice"}]}]}
